Experimental data: ChEMBL document CHEMBL1156236, “Trypanoside, anti-tuberculosis, leishmanicidal, and cytotoxic activities of tetrahydrobenzothienopyrimidines” (Bioorg Med Chem, 2010)
pIC50: −log10 of the molar value. ≈ marks a conversion by molar mass, not a printed value.

What was measured:
[1] = test system: Vero; experiment: Cytotoxicity against african green monkey Vero cells after 72 hrs by MTS assay; details: Chlorocebus sabaeus, Vero, 72 h
[2] = test system: Trypanosoma cruzi; experiment: Antitrypanosomal activity against Trypanosoma cruzi tulahuen C4 trypomastigotes infected in african green monkey Vero cells assessed as CPRG cleavage after 120 hrs by microplate reader; type: functional, organism-based
[3] = test system: Mycobacterium tuberculosis; experiment: Antitubercular activity against Mycobacterium tuberculosis H37Rv ATCC 27294 after 7 days by microplate alamar blue assay; type: functional; details: H37Rv ATCC 27294, 168 h
[4] = Selectivity index, ratio of IC50 for african green monkey Vero cells to MIC for Mycobacterium tuberculosis H37Rv ATCC 27294 by microplate alamar blue assay; type: functional
[5] = Cytotoxicity against BALB/c mouse macrophages after 48 hrs by trypan blue dye exclusion method; type: cell-based; details: Macrophage
[6] = test system: Leishmania amazonensis; experiment: Antileishmanial activity against Leishmania amazonensis MHOM/BR/76/LTB-012 amastigotes infected BALB/c mouse macrophages after 48 hrs by MTT assay; type: functional, organism-based; details: MHOM/BR/76/LTB-012, 48 h
[7] = test system: Leishmania amazonensis; experiment: Antileishmanial activity against Leishmania amazonensis Lma CL1 amastigotes infected BALB/c mouse macrophages after 48 hrs by Giemsa staining method; type: functional, organism-based; details: Lma CL1, 48 h
[8] = test system: Leishmania braziliensis; experiment: Antileishmanial activity against Leishmania braziliensis MHOM/PE/PER006 promastigote infected BALB/c mouse macrophages after 48 hrs by Giemsa staining method; type: functional, organism-based; details: MHOM/PE/PER006, 48 h
[9] = test system: Leishmania peruviana; experiment: Antileishmanial activity against Leishmania peruviana MHOM/PE/LCA08 promastigote infected BALB/c mouse macrophages after 48 hrs by Giemsa staining method; type: functional, organism-based; details: MHOM/PE/LCA08, 48 h
[10] = Cytotoxicity against BALB mouse 3T3 cells; type: cell-based; details: BALB 3T3 cells
[11] = test system: NCI-H460; experiment: Cytotoxicity against human NCI-H460 cells; type: functional
[12] = test system: MCF7; experiment: Cytotoxicity against human MCF7 cells; type: functional
[13] = test system: M14; experiment: Cytotoxicity against human M14 cells; type: functional
[14] = Cytotoxicity against human […] cells; type: functional
[15] = test system: A549; experiment: Cytotoxicity against human A549 cells; type: functional
[16] = test system: HOP-92; experiment: Cytotoxicity against human HOP92 cells; type: functional
[17] = test system: NCI-H226; experiment: Cytotoxicity against human NCI-H226 cells; type: functional
[18] = test system: NCI-H23; experiment: Cytotoxicity against human NCI-H23 cells; type: functional
[19] = test system: NCI-H522; experiment: Cytotoxicity against human NCI-H522 cells; type: functional
[20] = test system: COLO 205; experiment: Cytotoxicity against human COLO205 cells; type: functional
[21] = test system: HCC 2998; experiment: Cytotoxicity against human HCC2998 cells; type: functional
[22] = test system: HCT-15; experiment: Cytotoxicity against human HCT15 cells; type: functional
[23] = test system: SW-620; experiment: Cytotoxicity against human SW620 cells; type: functional
[24] = test system: SF-268; experiment: Cytotoxicity against human SF268 cells; type: functional
[25] = test system: SNB-19; experiment: Cytotoxicity against human SNB19 cells; type: functional
[26] = test system: SNB-75; experiment: Cytotoxicity against human SNB75 cells; type: functional
[27] = test system: U-251; experiment: Cytotoxicity against human U251 cells; type: functional
[28] = test system: LOX IMVI; experiment: Cytotoxicity against human LOXIMVI cells; type: functional
[29] = test system: SK-MEL-2; experiment: Cytotoxicity against human SK-MEL-2 cells; type: functional
[30] = test system: UACC-257; experiment: Cytotoxicity against human UACC257 cells; type: functional
[31] = test system: UACC-62; experiment: Cytotoxicity against human UACC62 cells; type: functional
[32] = test system: OVCAR-3; experiment: Cytotoxicity against human OVCAR-3 cells; type: functional
[33] = test system: OVCAR-5; experiment: Cytotoxicity against human OVCAR5 cells; type: functional
[34] = test system: OVCAR-8; experiment: Cytotoxicity against human OVCAR8 cells; type: functional
[35] = test system: NCI/ADR-RES; experiment: Cytotoxicity against human NCI/ADR-RES cells; type: functional
[36] = test system: 786-0; experiment: Cytotoxicity against human 786-0 cells; type: functional
[37] = test system: A498; experiment: Cytotoxicity against human A498 cells; type: functional
[38] = test system: ACHN; experiment: Cytotoxicity against human ACHN cells; type: functional
[39] = test system: RXF 393; experiment: Cytotoxicity against human RXF393 cells; type: functional
[40] = test system: SN12C; experiment: Cytotoxicity against human SN12C cells; type: functional
[41] = test system: TK-10; experiment: Cytotoxicity against human TK10 cells; type: functional
[42] = test system: UO-31; experiment: Cytotoxicity against human UO31 cells; type: functional; details: read-out: LC50 (the source's name)
[43] = Cytotoxicity against human Hs 578T cells; type: functional
[44] = test system: BT-549; experiment: Cytotoxicity against human BT549 cells; type: functional
[45] = test system: T47D; experiment: Cytotoxicity against human T47D cells; type: functional
[46] = read-out: LC50 (the source's name)

Question: With `C(=N\Nc1ncnc2sc3c(c12)CCCC3)/c1ccccn1` as the molecule, how does the pIC50 [1] read?
Answer: > 6.52

Question: What about the pIC50 [2] of the same molecule?
Answer: 5.41

Question: What about the MIC [3] of the same molecule?
Answer: 145 µM (≈ 44.9 µg/mL)

Question: And the “Ratio IC50” value [4]?
Answer: 0.2

Question: And the pIC50 [5]?
Answer: 5.19

Question: What about the pIC50 [6] of the same molecule?
Answer: 6.30

Question: What about the pIC50 [7] of the same molecule?
Answer: < 5.70

Question: And the pIC50 [8]?
Answer: 6.22

Question: What about the pIC50 [9] of the same molecule?
Answer: 6.15

Question: And the GI50 [10]?
Answer: 0.04 µM

Question: What about the GI50 [11] of the same molecule?
Answer: 0.4 µM

Question: And the TGI [11]?
Answer: 1.73 µM

Question: And the CC50 [11, 46]?
Answer: 31.1 µM

Question: What about the GI50 [12] of the same molecule?
Answer: 0.09 µM

Question: And the TGI [12]?
Answer: 15.3 µM

Question: What about the CC50 [12, 46] of the same molecule?
Answer: 80 µM

Question: And the GI50 [13]?
Answer: 0.25 µM

Question: And the TGI [13]?
Answer: 0.599 µM

Question: And the CC50 [13, 46]?
Answer: 33.4 µM

Question: What about the GI50 [14] of the same molecule?
Answer: 0.35 µM

Question: And the TGI [14]?
Answer: 12.5 µM

Question: What about the CC50 [14, 46] of the same molecule?
Answer: > 100 µM

Question: And the GI50 [15]?
Answer: 0.389 µM

Question: What about the TGI [15] of the same molecule?
Answer: 14.9 µM

Question: And the CC50 [15, 46]?
Answer: 70 µM

Question: What about the GI50 [16] of the same molecule?
Answer: 0.417 µM

Question: And the TGI [16]?
Answer: 31 µM

Question: What about the CC50 [16, 46] of the same molecule?
Answer: > 100 µM

Question: What about the GI50 [17] of the same molecule?
Answer: 0.385 µM

Question: And the TGI [17]?
Answer: 16.2 µM

Question: And the CC50 [17, 46]?
Answer: > 100 µM

Question: And the GI50 [18]?
Answer: 0.705 µM

Question: What about the TGI [18] of the same molecule?
Answer: 34.3 µM

Question: And the CC50 [18, 46]?
Answer: > 100 µM

Question: What about the GI50 [19] of the same molecule?
Answer: 0.419 µM

Question: What about the TGI [19] of the same molecule?
Answer: 23.2 µM

Question: And the CC50 [19, 46]?
Answer: > 100 µM

Question: What about the GI50 [20] of the same molecule?
Answer: 0.315 µM

Question: What about the TGI [20] of the same molecule?
Answer: 14.7 µM

Question: And the CC50 [20, 46]?
Answer: 54.5 µM

Question: What about the GI50 [21] of the same molecule?
Answer: 10 µM

Question: And the TGI [21]?
Answer: 22.9 µM

Question: And the CC50 [21, 46]?
Answer: 52.6 µM

Question: And the GI50 [22]?
Answer: 0.45 µM

Question: And the TGI [22]?
Answer: 27 µM

Question: And the CC50 [22, 46]?
Answer: > 100 µM

Question: And the GI50 [23]?
Answer: 0.561 µM

Question: What about the TGI [23] of the same molecule?
Answer: 17.9 µM

Question: What about the CC50 [23, 46] of the same molecule?
Answer: 59.5 µM

Question: And the GI50 [24]?
Answer: 0.356 µM

Question: And the TGI [24]?
Answer: 15.1 µM

Question: And the CC50 [24, 46]?
Answer: 83 µM

Question: And the GI50 [25]?
Answer: 0.767 µM

Question: And the TGI [25]?
Answer: 34.1 µM

Question: What about the CC50 [25, 46] of the same molecule?
Answer: > 100 µM

Question: And the GI50 [26]?
Answer: 0.585 µM

Question: And the TGI [26]?
Answer: 14.7 µM

Question: What about the CC50 [26, 46] of the same molecule?
Answer: 49.3 µM

Question: What about the GI50 [27] of the same molecule?
Answer: 0.369 µM

Question: What about the TGI [27] of the same molecule?
Answer: 12.1 µM

Question: What about the CC50 [27, 46] of the same molecule?
Answer: 34.8 µM

Question: And the GI50 [28]?
Answer: 0.256 µM

Question: What about the CC50 [28, 46] of the same molecule?
Answer: 34.8 µM

Question: And the GI50 [29]?
Answer: 7.51 µM

Question: What about the TGI [29] of the same molecule?
Answer: 25.5 µM

Question: What about the CC50 [29, 46] of the same molecule?
Answer: 67.8 µM

Question: What about the GI50 [30] of the same molecule?
Answer: 0.355 µM

Question: What about the CC50 [30, 46] of the same molecule?
Answer: 41.7 µM

Question: What about the GI50 [31] of the same molecule?
Answer: 0.379 µM

Question: And the TGI [31]?
Answer: 6.54 µM

Question: What about the CC50 [31, 46] of the same molecule?
Answer: 48.4 µM

Question: What about the GI50 [32] of the same molecule?
Answer: 0.109 µM

Question: And the TGI [32]?
Answer: 14.5 µM

Question: What about the CC50 [32, 46] of the same molecule?
Answer: 43.9 µM

Question: And the GI50 [33]?
Answer: 0.823 µM

Question: And the TGI [33]?
Answer: 31.4 µM

Question: And the CC50 [33, 46]?
Answer: > 0.1 µM

Question: What about the GI50 [34] of the same molecule?
Answer: 0.481 µM

Question: What about the TGI [34] of the same molecule?
Answer: > 1 µM

Question: What about the CC50 [34, 46] of the same molecule?
Answer: > 0.1 µM

Question: And the GI50 [35]?
Answer: 0.427 µM

Question: And the TGI [35]?
Answer: 58.1 µM

Question: What about the CC50 [35, 46] of the same molecule?
Answer: > 0.1 µM

Question: What about the GI50 [36] of the same molecule?
Answer: 0.333 µM

Question: And the TGI [36]?
Answer: 0.947 µM

Question: And the CC50 [36, 46]?
Answer: 44.4 µM

Question: And the GI50 [37]?
Answer: 0.428 µM

Question: What about the TGI [37] of the same molecule?
Answer: 8.81 µM

Question: And the CC50 [37, 46]?
Answer: 37.2 µM

Question: What about the GI50 [38] of the same molecule?
Answer: 0.313 µM

Question: What about the TGI [38] of the same molecule?
Answer: 11 µM

Question: What about the CC50 [38, 46] of the same molecule?
Answer: > 100 µM

Question: What about the GI50 [39] of the same molecule?
Answer: 0.423 µM

Question: And the TGI [39]?
Answer: 10.6 µM

Question: And the CC50 [39, 46]?
Answer: 45.3 µM

Question: What about the GI50 [40] of the same molecule?
Answer: 0.426 µM

Question: And the TGI [40]?
Answer: 15.3 µM

Question: And the CC50 [40, 46]?
Answer: 81 µM

Question: And the GI50 [41]?
Answer: 0.486 µM

Question: And the TGI [41]?
Answer: 56.6 µM

Question: And the CC50 [41, 46]?
Answer: > 100 µM

Question: And the CC50 [42]?
Answer: 63 µM

Question: And the GI50 [43]?
Answer: 0.748 µM

Question: And the TGI [43]?
Answer: 23.9 µM

Question: And the CC50 [43, 46]?
Answer: > 100 µM

Question: And the GI50 [44]?
Answer: 0.394 µM

Question: What about the TGI [44] of the same molecule?
Answer: 28.7 µM

Question: What about the CC50 [44, 46] of the same molecule?
Answer: > 100 µM

Question: What about the GI50 [45] of the same molecule?
Answer: 0.0764 µM

Question: What about the TGI [45] of the same molecule?
Answer: 28 µM

Question: And the CC50 [45, 46]?
Answer: > 100 µM
